Ki data for 27 molecules are collected here from ChEMBL document CHEMBL1136785, “Design and structure-activity relationships of 2-alkyl-3-aminomethyl-6-(3-methoxyphenyl)-7-methyl-8-(2-fluorobenzyl)imidazolo[1,2-a]pyrimid-5-ones as potent GnRH receptor antagonists” (J Med Chem, 2003).

pKi: −log10 of the molar value.

As a reminder, the pKi is the Ki on a negative log10 scale, so that one unit is a factor of ten.

The target of this test is T1, Gonadotropin-releasing hormone receptor (Homo sapiens, UniProt P30968).
T1 sequence (P30968 whole entry): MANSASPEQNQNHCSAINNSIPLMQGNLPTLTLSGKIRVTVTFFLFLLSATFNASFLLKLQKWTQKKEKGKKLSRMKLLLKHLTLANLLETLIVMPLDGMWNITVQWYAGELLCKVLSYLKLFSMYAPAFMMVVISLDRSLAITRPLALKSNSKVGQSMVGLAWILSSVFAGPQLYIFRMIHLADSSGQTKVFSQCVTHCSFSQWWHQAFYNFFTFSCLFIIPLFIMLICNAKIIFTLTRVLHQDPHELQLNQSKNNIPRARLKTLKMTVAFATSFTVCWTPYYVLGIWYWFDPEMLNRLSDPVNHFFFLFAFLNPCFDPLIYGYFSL
The experiment in a line: Binding affinity against human gonadotropin-releasing hormone receptor.
Regarding `COc1cccc(-c2c(C)n(Cc3ccccc3F)c3nc(C(C)(C)C)c(CNCc4ccccc4)n3c2=O)c1`, the pKi is 6.62.

Consider `COc1cccc(-c2c(C)n(Cc3ccccc3F)c3nc4c(n3c2=O)CN(CCc2ccccn2)CC4(C)C)c1`, for which the pKi is 4.92. This pKi lies 1.70 log units lower than the previous one.

`COCCN(C)Cc1c(C(C)(C)C)nc2n(Cc3ccccc3F)c(C)c(-c3cccc(OC)c3)c(=O)n12` gave a pKi of 6.37.

As for `COC(=O)C(C)(C)c1nc2n(Cc3ccccc3F)c(C)c(-c3cccc(OC)c3)c(=O)n2c1CN(C)CCc1ccccn1`, the pKi is 8.92.

`COc1cccc(-c2c(C)n(Cc3ccccc3F)c3nc(C(C)(C)C)c(CNCC4CCCCC4)n3c2=O)c1` showed a pKi of 6.37.

As for `COc1cccc(-c2c(C)n(Cc3ccccc3F)c3nc(C(C)(C)C)c(CNCC4CCCC4)n3c2=O)c1`, the pKi was 5.19.

As for `COC(=O)C(C)(C)c1nc2n(Cc3ccccc3F)c(C)c(-c3cccc(OC)c3)c(=O)n2c1CN(C)Cc1ccccn1`, the pKi is 8.38.

As to `COC(=O)C(C)(C)c1nc2n(Cc3ccccc3F)c(C)c(-c3cccc(OC)c3)c(=O)n2c1CN1CCc2ccccc2C1`, the pKi is 5.04.

Molecule `COc1cccc(-c2c(C)n(Cc3ccccc3F)c3nc(C(C)(C)CO)c(CN(C)Cc4ccccn4)n3c2=O)c1` gave a negative logarithm of the Ki (pKi) of 8.10. This pKi lies 3.06 log units higher than the previous one.

`COc1cccc(-c2c(C)n(Cc3ccccc3F)c3nc(C(C)(C)C)c(CN(C)CCc4ccccc4)n3c2=O)c1` gave a pKi of 6.72.

Turning to `COC(=O)C(C)(C)c1nc2n(Cc3ccccc3F)c(C)c(-c3cccc(OC)c3)c(=O)n2c1CN1CCC(c2ccccc2)CC1`, the pKi was 5.29.

Regarding `COCCN(C)Cc1c(C(C)(C)C(=O)OC)nc2n(Cc3ccccc3F)c(C)c(-c3cccc(OC)c3)c(=O)n12`, the pKi is 6.52.

`COc1cccc(-c2c(C)n(Cc3ccccc3F)c3nc(C(C)(C)C)c(CNCCc4ccccn4)n3c2=O)c1` gave a pKi of 6.80. This pKi lies 0.28 log units higher than the previous one.

`COC(=O)C(C)(C)c1nc2n(Cc3ccccc3F)c(C)c(-c3cccc(OC)c3)c(=O)n2c1CN(C)CCc1ccccc1` gave a pKi of 6.89.

Molecule `COc1cccc(-c2c(C)n(Cc3ccccc3F)c3nc(C(C)(C)CNCCc4ccccn4)cn3c2=O)c1` gave a pKi of 6.46.

Regarding `COc1cccc(-c2c(C)n(Cc3ccccc3F)c3nc(C(C)(C)C)c(CN(C)Cc4ccccc4)n3c2=O)c1`, the pKi is 7.14.

As for `COC(=O)C(C)(C)c1nc2n(Cc3ccccc3F)c(C)c(-c3cccc(OC)c3)c(=O)n2c1CN(C)Cc1cccnc1`, the pKi is 6.40.

As to `CCN(CC)CCN(C)Cc1c(C(C)(C)C)nc2n(Cc3ccccc3F)c(C)c(-c3cccc(OC)c3)c(=O)n12`, the pKi is 6.59.

The molecule `COc1cccc(-c2c(C)n(Cc3ccccc3F)c3nc(C(C)(C)C)c(CN(C)C)n3c2=O)c1` showed a pKi of 5.77. This pKi is 0.82 log units lower than that of the molecule before.

In turn, `COc1cccc(-c2c(C)n(Cc3ccccc3F)c3nc(C(C)(C)C)c(CN(C)Cc4ccccn4)n3c2=O)c1` had a pKi of 7.96.

Regarding `CCCCN(C)Cc1c(C(C)(C)C(=O)OC)nc2n(Cc3ccccc3F)c(C)c(-c3cccc(OC)c3)c(=O)n12`, the pKi is 6.49.

`COc1cccc(-c2c(C)n(Cc3ccccc3F)c3nc(C(C)(C)C)c(CNCc4ccccn4)n3c2=O)c1` gave a negative-log Ki (pKi) of 7.52.

`COc1cccc(-c2c(C)n(Cc3ccccc3F)c3nc(C(C)(C)C)c(CN(C)CCc4ccccn4)n3c2=O)c1`: the pKi is 8.28.

With `COC(=O)C(C)(C)c1nc2n(Cc3ccccc3F)c(C)c(-c3cccc(OC)c3)c(=O)n2c1CN(C)Cc1ccccc1`, the pKi was 7.23. This pKi lies 1.05 log units lower than the previous one.

The molecule `COC(=O)C(C)(C)c1nc2n(Cc3ccccc3F)c(C)c(-c3cccc(OC)c3)c(=O)n2c1CN1CCN(C)CC1` had a pKi of 5.11. This pKi is 2.12 log units lower than that of the molecule before.

`COC(=O)C(C)(C)c1nc2n(Cc3ccccc3F)c(C)c(-c3cccc(OC)c3)c(=O)n2c1CN(C)Cc1ccccc1O` gave a pKi of 6.31.

Molecule `CCN(CCc1ccccn1)Cc1c(C(C)(C)C)nc2n(Cc3ccccc3F)c(C)c(-c3cccc(OC)c3)c(=O)n12` gave a pKi of 8.10.
